Biological target: T1, Carbonic anhydrase 15 (Mus musculus, UniProt Q99N23)
T1 sequence (Q99N23 whole entry): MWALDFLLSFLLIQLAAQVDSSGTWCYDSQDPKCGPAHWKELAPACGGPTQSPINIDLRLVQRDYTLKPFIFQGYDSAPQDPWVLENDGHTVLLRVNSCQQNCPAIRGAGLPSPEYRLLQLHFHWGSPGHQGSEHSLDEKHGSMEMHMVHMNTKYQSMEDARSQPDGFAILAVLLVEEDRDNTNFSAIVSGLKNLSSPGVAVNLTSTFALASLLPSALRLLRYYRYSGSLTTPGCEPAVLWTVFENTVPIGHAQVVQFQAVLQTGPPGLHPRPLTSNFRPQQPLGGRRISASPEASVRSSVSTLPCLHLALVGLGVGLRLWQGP

`NS(N)(=O)=O` [SULFAMIDE] was tested. Which Ki did it give?
The Ki was 37.4 µM.

Source: ChEMBL document CHEMBL1136840 (Bioorg Med Chem Lett, 2009)
